Patent publication US20170226139A1, “CRYSTALLINE SALTS OF (Z)-O-OCTADEC-9-EN-1-YL O,O-DIHYDROGEN PHOSPHOROTHIOATE” (priority 2013, published 2017)
Marks after values point to notes of the source that are not given here.

What was measured:
[1] = test system: C57BL/6 murine Animal Model of GI-ARS; experiment: Survival after partial body irradiation (tibial sparing), murine Animal Model of GI-ARS (Studies 4.1.4, 4.1.5, 4.1.8); format: in vivo, C57BL/6 mice; settings: for Survival Day 10, Rx100 arm (survivors/animals) / Survival Day ≧30, Rx100 arm (survivors/animals) / Survival Advantage Day 10 / Survival Advantage Day ≧30: Murine (♀), start +24; for Survival Advantage Day 10 / Survival Advantage Day ≧30 / Survival advantage 0.3 mg/kg / Survival advantage 3 mg/kg / Survival advantage: vs vehicle; for Survival, 0.3 mg/kg / Survival, 3 mg/kg / Survival advantage 0.3 mg/kg / Survival advantage 3 mg/kg: Study 4.1.4, Phase 2 + 3; for Survival, 0.3 mg/kg / Survival, 3 mg/kg: q12 h × 6 from 24 h after PBI; for Survival advantage / Survival, Rx100 at 3 mg/kg/12 × 6: Study 4.1.8, Phase 1 + 2, female C57BL/6; for Survival advantage: 3 mg/kg/12 h × 6
Description: These Animal Model studies were all conducted using partial body irradiation (PBI) with tibial bone marrow sparing except the earliest study which was performed with Total Abdominal Irradiation (TAI). The male Rhesus macaque model was developed by MacVittie. The female inbred murine PBI GI-ARS Animal Model was developed by the inventors. […] Differences in radiation sensitivity by gender in rodent species are well appreciated. We are not aware of PBI GI-ARS models other than these that meet criteria required to conduct a prospective, blinded, controlled, randomized study of efficacy.
A synopsis from each of the completed three sequential efficacy studies in the C57BL/6 murine partial body irradiation model of GI-ARS is provided below. […] Study WBS 4.1.8 was a pilot study of the efficacy of Rx100 at the preferred dose and regimen. The latter two studies (4.1.5) and 4.1.8) were blinded, randomized and controlled. The former study was not blinded but was controlled and randomized (WBS 4.1.4).
Study was initiated on Feb. […] Experiments were started on Feb.
Phase 1 (n=32 per group per sex) was designed as an expanded pilot dose-ranging study (0.3, 1.0, 3.0, and 10 mg/kg) to select two Rx100 doses for additional testing in phases 2 and 3. Phases 2 and 3 (enrolled n=64 per group per gender) were conducted at the selected Rx100 doses (0.3 and 3.0 mg/kg) to ensure sufficient sample size to power an assessment of survival advantage. The latter study was conducted in two phases based on facility limitations (up to 120 animals can be handled readily in one radiation sequence). […] A higher radiation dose was used in Phases 2 and 3 and two intermediate doses selected empirically (0.3 and 3.0 mg/kg). The study was carried out to 30 days post irradiation in all phases. The primary endpoint in this study was survival at Day 10. The modified intent-to-treat primary study population was defined as those animals that survived anesthesia following irradiation. Survival advantage was calculated as the percent survival in the active arm minus the percent survival in the vehicle arm for males and females separately with pairwise comparison by Chi-Square as a test of significance without adjustment for multiple testing. Significance was declared at the 0.05 level (two-sided). […] See Kaplan-Meier FIG. 32.
The study was initiated on Apr. […] Experiments were started on Apr.
Under the study design, four radiation doses were selected for vehicle administration. […] The study was performed in female mice only. […] Animals were randomized but stratified by weight to assure equivalent weights in each arm. The study was conducted in two phases to assure adequate subject numbers based on limitations on the number of animals that can be processed per phase (120). The primary endpoint in this study was survival at Day 10 but the study was carried out to Day 30.

[2] = test system: Male Sprague-Dawley rats; experiment: Gastrointestinal system safety pharmacology (charcoal transit, gastric emptying); format: in vivo
Description: Male Sprague-Dawley rats (n=6/group) were administered Rx100.lysine as a single oral (gavage) doses of 0 (10 mM histidine in sterile water for Injection, USP), 1.81, 6.33, and 18.1 mg/kg and monitored for gastrointestinal parameters of transit time and gastric emptying. A fifth group was treated with the positive control material morphine sulfate. Two hours after treatment, animals received an oral gavage dose of a charcoal suspension. Animals were then sacrificed 20 minutes. Parameters evaluated included gastrointestinal transit time and gastric emptying. […] No abnormal observations were recorded. […] It was concluded that there were no adverse effects on the gastrointestinal tract in rats at doses of 1.81 mg/kg (gastric emptying) or 6.33 mg/kg (transit time).

[3] = Rx Bio 415, 3 mg/kg (q12 × 6), 15.62-64 Gy
[4] = RxBio 414, 0.3 mg/kg (q12 × 6), 15.65-8 Gy
[5] = RxBio 414, 3 mg/kg (q12 × 6), 15.65-8 Gy
[6] = RxBio 418F, 3 mg/kg (q12 × 6), 15.55-67 Gy (pooled)
[7] = RxBio 418F, 3 mg/kg (q12 × 6), 15.55 Gy
[8] = RxBio 418F, 3 mg/kg (q12 × 6), 15.62 Gy
[9] = RxBio 418F, 3 mg/kg (q12 × 6), 15.67 Gy
[10] = Study 4.1.5, female, 3 mg/kg q12 h×6 starting 24 hours after PBI
[11] = male, Sprague-Dawley, rat, in vivo, oral, 140 min

Compound: CCCCCCCC/C=C\CCCCCCCCOP(O)(O)=S [Rx100, (Z)—O-octadec-9-en-1-yl O,O-dihydrogen phosphorothioate]
- Survival Day 10, Rx100 arm (survivors/animals) [1, 3]: 18/32
- Survival Day ≧30, Rx100 arm (survivors/animals) [1, 3]: 9/32
- Survival Advantage Day 10 [1, 3]: 50%
- Survival Advantage Day ≧30 [1, 3]: 28%
- Survival Day 10, Rx100 arm (survivors/animals) [1, 4]: 29/60
- Survival Day ≧30, Rx100 arm (survivors/animals) [1, 4]: 20/60
- Survival Advantage Day 10 [1, 4]: 5%
- Survival Advantage Day ≧30 [1, 4]: 23%
- Survival Day 10, Rx100 arm (survivors/animals) [1, 5]: 41/64
- Survival Day ≧30, Rx100 arm (survivors/animals) [1, 5]: 23/64
- Survival Advantage Day 10 [1, 5]: 23%
- Survival Advantage Day ≧30 [1, 5]: 26%
- Survival Day 10, Rx100 arm (survivors/animals) [1, 6]: 52/105
- Survival Day ≧30, Rx100 arm (survivors/animals) [1, 6]: 42/105
- Survival Advantage Day 10 [1, 6]: 32%
- Survival Advantage Day ≧30 [1, 6]: 25%
- Survival Day 10, Rx100 arm (survivors/animals) [1, 7]: 16/34
- Survival Day ≧30, Rx100 arm (survivors/animals) [1, 7]: 13/34
- Survival Advantage Day 10 [1, 7]: 25%
- Survival Advantage Day ≧30 [1, 7]: 22%
- Survival Day 10, Rx100 arm (survivors/animals) [1, 8]: 21/36
- Survival Day ≧30, Rx100 arm (survivors/animals) [1, 8]: 17/36
- Survival Advantage Day 10 [1, 8]: 47%
- Survival Advantage Day ≧30 [1, 8]: 39%
- Survival Day 10, Rx100 arm (survivors/animals) [1, 9]: 15/35
- Survival Day ≧30, Rx100 arm (survivors/animals) [1, 9]: 12/35
- Survival Advantage Day 10 [1, 9]: 23%
- Survival Advantage Day ≧30 [1, 9]: 14%
- Survival, 0.3 mg/kg ([1]; Females, Day 10): 48.3% (29/60)
- Survival, 3 mg/kg ([1]; Females, Day 10): 64.1% (41/64)
- Survival advantage 0.3 mg/kg ([1]; Females, Day 10): 7.3%
- Survival advantage 3 mg/kg ([1]; Females, Day 10): 23.1%*
- Survival, 0.3 mg/kg ([1]; Females, Day 30): 33.3% (20/60)
- Survival, 3 mg/kg ([1]; Females, Day 30): 35.9% (23/41)
- Survival advantage 0.3 mg/kg ([1]; Females, Day 30): 23.5%*
- Survival advantage 3 mg/kg ([1]; Females, Day 30): 26.1%*
- Survival, 0.3 mg/kg ([1]; Males, Day 10): 38.2% (21/55)
- Survival, 3 mg/kg ([1]; Males, Day 10): 41.4% (24/58)
- Survival advantage 0.3 mg/kg ([1]; Males, Day 10): −2.2%
- Survival advantage 3 mg/kg ([1]; Males, Day 10): 1.0%
- Survival, 0.3 mg/kg ([1]; Males, Day 30): 12.7% (7/55)
- Survival, 3 mg/kg ([1]; Males, Day 30): 17.2% (10/58)
- Survival advantage 0.3 mg/kg ([1]; Males, Day 30): −17.1%
- Survival advantage 3 mg/kg ([1]; Males, Day 30): 12.6%
- increase in survival at Day 10 ([1]; Study 4.1.4, female, 0.3 mg/kg/12 h/6, not statistically significant): 7.3%
- survival advantage at Day 10 ([1]; Study 4.1.4, female, 3 mg/kg/12 h×6 starting 24 hours after PBI, statistically significant): 23.1%
- survival benefit by Day 30 ([1]; Study 4.1.4, female, both 0.3 mg/kg and 3 mg/kg): a benefit was seen
- survival benefit in male animals ([1]; Study 4.1.4, male): no survival benefit
- survival advantage at Day 10 [1, 10]: 50%
- survival advantage through Day 30 [1, 10]: 28%
- efficacy with delayed start of dosing ([1]; Study 4.1.5, female, dosing started ≧48 hours after radiation): Efficacy was not seen
- efficacy and toxicity in male mice ([1]; Study 4.1.5, male, 3 mg/kg q12 h×6): neither efficacy nor toxicity was seen
- Survival advantage ([1]; 15.55 Gy, Day 10): 24.9%*
- Survival advantage ([1]; 15.55 Gy, Day 30): 21.5%*
- Survival advantage ([1]; 15.62 Gy, Day 10): 47.2%*
- Survival advantage ([1]; 15.62 Gy, Day 30): 38.9%*
- Survival advantage ([1]; 15.67 Gy, Day 10): 22.9%*
- Survival advantage ([1]; 15.67 Gy, Day 30): 14.3%
- Survival, Rx100 at 3 mg/kg/12 × 6 ([1]; 15.55 Gy, Day 10): 47.1%
- Survival, Rx100 at 3 mg/kg/12 × 6 ([1]; 15.55 Gy, Day 30): 38.2%
- Survival, Rx100 at 3 mg/kg/12 × 6 ([1]; 15.62 Gy, Day 10): 58.3
- Survival, Rx100 at 3 mg/kg/12 × 6 ([1]; 15.62 Gy, Day 30): 47.2%
- Survival, Rx100 at 3 mg/kg/12 × 6 ([1]; 15.67 Gy, Day 10): 42.9%
- Survival, Rx100 at 3 mg/kg/12 × 6 ([1]; 15.67 Gy, Day 30): 34.3%
- survival advantage at Day 10 and Day 30 ([1]; Study 4.1.8, female, 3 mg/kg q12 h×6 starting at 24 hours after PBI): clinically and statistically significant survival advantage
- Day 10 survival ([1]; females, treatment administered starting at 24 hours after radiation): 56.3%
- survival ([1]; male mice, comparable group): 72%

Compound: CCCCCCCC/C=C\CCCCCCCCOP(O)(O)=S [Rx100.L-Lysine, (Z)—O-octadec-9-en-1-yl O,O-dihydrogen phosphorothioate]
- gastric emptying ([2]; 6.33 and 18.1 mg/kg, statistically significant only at 6.33 mg/kg): inhibited
- dose with no adverse effects on gastric emptying [2, 11]: 1.81 mg/kg
- dose with no adverse effects on transit time [2, 11]: 6.33 mg/kg
- intestinal transit time ([2]; only at 18.1 mg/kg): increased
